Results from patent US20250134869A1, “Pyrrolo[2,3-d]pyrimidinyl, Pyrrolo[2,3-b]pyrazinyl and Pyrrolo[2,3-d]pyridinyl Acryla-mides” (Pfizer Inc, priority 2021, published 2025).
Where two headings read alike, the source gives them in different places.

Target: JAK3 enzyme (Homo sapiens (Human), UniProt P52333)
Test: JAK Caliper Enzyme Assay at 4 μM or 1 mM ATP
Format: biochemical
Procedure: JAK Caliper Enzyme Assay at […] or 1 mM ATP
Test article was solubilized in dimethyl sulfoxide (DMSO) to a stock concentration of 30 mM. An 11-point half log dilution series was created in DMSO with a top concentration of 600 μM. […] The compound plates were diluted 1 to 60 resulting in a top final assay compound concentration of 10 μM and a 2% DMSO concentration.
Test article and assay controls were added to a 384-well plate. Reaction mixtures contained 20 mM HEPES, pH 7.4, 10 mM magnesium chloride, 0.01% bovine serum albumin (BSA), 0.0005% Tween […] or 1 mM ATP and […] peptide substrate. […] The assays were initiated by the addition 1 nM JAK3 enzyme and were incubated at room temperature 75 minutes for JAK3. Enzyme concentrations and incubation times were optimized for each new enzyme preps and were modified slightly over time to ensure 20%-30% phosphorylation. The assays were stopped with a final concentration of 10 mM EDTA, 0.1% Coating Reagent and 100 mM HEPES, pH=7.4. The assay plates were placed on a Caliper Life Science Lab Chip 3000 (LC3000) instrument, and each well was sampled using appropriate separation conditions to measure the unphosphorylated and phosphorylated peptide.

[1] = read-out: JAK3 (4 μM ATP) IC50, 4 μM ATP
[2] = read-out: JAK3 (1 mM ATP) IC50, 1 mM ATP

Chain of JAK3 enzyme (P52333 whole entry, species assumed): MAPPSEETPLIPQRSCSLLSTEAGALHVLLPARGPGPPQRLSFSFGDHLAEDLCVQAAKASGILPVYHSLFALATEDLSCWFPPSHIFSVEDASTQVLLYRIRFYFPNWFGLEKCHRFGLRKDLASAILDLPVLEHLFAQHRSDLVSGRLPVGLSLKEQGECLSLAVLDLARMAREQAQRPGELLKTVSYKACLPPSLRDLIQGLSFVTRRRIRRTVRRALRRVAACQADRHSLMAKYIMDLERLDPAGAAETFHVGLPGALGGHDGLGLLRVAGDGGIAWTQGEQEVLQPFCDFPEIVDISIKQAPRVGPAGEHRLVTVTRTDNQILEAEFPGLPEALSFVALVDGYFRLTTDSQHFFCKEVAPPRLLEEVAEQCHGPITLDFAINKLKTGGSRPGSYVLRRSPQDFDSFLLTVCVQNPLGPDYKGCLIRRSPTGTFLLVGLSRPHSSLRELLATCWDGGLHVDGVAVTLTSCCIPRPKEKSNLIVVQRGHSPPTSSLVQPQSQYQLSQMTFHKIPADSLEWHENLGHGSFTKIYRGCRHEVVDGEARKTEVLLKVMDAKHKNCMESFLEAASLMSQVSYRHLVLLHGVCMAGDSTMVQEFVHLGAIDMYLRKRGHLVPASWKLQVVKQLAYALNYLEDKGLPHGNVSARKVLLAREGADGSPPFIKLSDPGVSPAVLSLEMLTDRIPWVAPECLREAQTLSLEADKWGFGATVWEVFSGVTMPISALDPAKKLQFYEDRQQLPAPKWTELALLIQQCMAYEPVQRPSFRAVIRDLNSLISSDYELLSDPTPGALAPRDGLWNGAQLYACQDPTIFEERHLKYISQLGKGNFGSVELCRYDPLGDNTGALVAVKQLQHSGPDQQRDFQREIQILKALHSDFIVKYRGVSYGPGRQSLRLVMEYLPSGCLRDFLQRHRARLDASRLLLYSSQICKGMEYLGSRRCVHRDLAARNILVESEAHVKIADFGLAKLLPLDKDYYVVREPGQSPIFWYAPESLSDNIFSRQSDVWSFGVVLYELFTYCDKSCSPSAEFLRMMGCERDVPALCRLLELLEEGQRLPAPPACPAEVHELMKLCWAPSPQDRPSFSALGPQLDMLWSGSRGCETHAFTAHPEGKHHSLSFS

Row | SMILES | IC50 [1] [nM] | IC50 [2] [nM]
1 | C=C(C)C(=O)N1CCC[C@@H](N2CC(C)c3c[nH]c4ncnc2c34)C1 (mixture of isomers) [Example 153, 2-Methyl-1-[(3R)-3-(3-methyl-3,4-dihydro-1,5,6,8-tetraazaacenaphthylen-5 (1H)-yl)piperidin-1-yl]prop-2-en-1-one] | 9440 | 
2 | C/C=C/C(=O)N1CCC[C@@H](N2CC(C)c3c[nH]c4ncnc2c34)C1 (mixture of isomers) [Example 154, (2E)-1-[(3R)-3-(3-methyl-3,4-dihydro-1,5,6,8-tetraazaacenaphthylen-5 (1H)-yl)piper-idin-1-yl]but-2-en-1-one] | 4940 | 
3 | C=CC(=O)N1C[C@H](Nc2ncnc3[nH]ccc23)CC[C@@H]1CC (single isomer, unassigned) [Example 9] | 0.4 | 53.9
4 | C=CC(=O)N1CC[C@H](F)[C@@H](Nc2ncnc3[nH]ccc23)C1 [Example 4, 1-((3S,4S)-3-((7H-pyrrolo[2,3-d]pyrimidin-4-yl)amino)-4-fluoropiperidin-1-yl)prop-2-en-1-one] | 0.5 | 32.1
5 | C=CC(=O)N1C[C@H](C#N)C[C@@H](Nc2ncnc3[nH]ccc23)C1 [Example 6, (3R,5R)-5-((7H-pyrrolo[2,3-d]pyrimidin-4-yl)amino)-1-acryloylpiperidine-3-carbonitrile] | 0.3 | 40
6 | C=CC(=O)N1CCC[C@@H](Nc2ncnc3[nH]ccc23)C1 [Example 12, (R)-1-(3-((7H-Pyrrolo[2,3-d]pyrimidin-4-yl)amino)piperidin-1-yl)prop-2-en-1-one] | 0.7 | 56.8
7 | C=CC(=O)N1C[C@H](Nc2ncnc3[nH]cc(CCOC)c23)CC[C@@H]1C [Example 13, 1-((2S,5R)-5-((5-(2-Methoxyethyl)-7H-pyrrolo[2,3-d]pyrimidin-4-yl)amino)-2-methylpiperidin-1-yl)prop-2-en-1-one] | 0.4 | 60.6
8 | C=CC(=O)N1C[C@@H](F)C[C@@H](Nc2ncnc3[nH]ccc23)C1 [Example 15, 1-((3R,5S)-3-((7H-Pyrrolo[2,3-d]pyrimidin-4-yl)amino)-5-fluoropiperidin-1-yl)prop-2-en-1-one] | 0.9 | 82.7
9 | C=CC(=O)N1C[C@@H](O)C[C@@H](Nc2ncnc3[nH]ccc23)C1 [Example 17, 1-((3R,5S)-3-(7H-Pyrrolo[2,3-d]pyrimidin-4-ylamino)-5-hydroxypiperidin-1-yl)prop-2-en-1-one] | 1.7 | 92.2
10 | C=CC(=O)N1C[C@H](Nc2ncnc3[nH]cc(Cl)c23)CC[C@@H]1C [Example 18, 1-((2S,5R)-5-((5-Chloro-7H-pyrrolo[2,3-d]pyrimidin-4-yl)amino)-2-methylpiperidin-1-yl)prop-2-en-1-one] | 0.2 | 16.1
11 | C=CC(=O)N1C[C@H](Nc2ncnc3[nH]ccc23)C[C@H](OC)C1 [Example 19, 1-((3R,5S)-3-((7H-Pyrrolo[2,3-d]pyrimidin-4-yl)amino)-5-methoxypiperidin-1-yl)prop-2-en-1-one] | 0.6 | 67.6
12 | C=CC(=O)N1CCC[C@@H](Nc2ncnc3[nH]cc(CC#N)c23)C1 [Example 20, (R)-2-(4-((1-Acryloylpiperidin-3-yl)amino)-7H-pyrrolo[2,3-d]pyrimidin-5-yl)acetonitrile] | 1 | 76.5
13 | C=CC(=O)N1CCC[C@@H](Nc2ncnc3[nH]cc(C4CC4)c23)C1 [Example 37, 1-{(3R)-3-[(5-cyclopropyl-7H-pyrrolo[2,3-d]pyrimidin-4-yl)amino]piperidin-1-yl}prop-2-en-1-one] | 295 | 
14 | C=CC(=O)N1CCC[C@@H](Nc2ncnc3[nH]cc(/C=C/c4ccoc4)c23)C1 [Example 38, 1-[(3R)-3-({5-[(E)-2-(furan-3-yl)ethenyl]-7H-pyrrolo[2,3-d]pyrimidin-4-yl}amino)piperidin-1-yl]prop-2-en-1-one] | 3250 | 
15 | C=CC(=O)N1CCC[C@@H](Nc2ncnc3[nH]cc(CC(C)C)c23)C1 [Example 39, 1-[(3R)-3-{[5-(2-methylpropyl)-7H-pyrrolo[2,3-d]pyrimidin-4-yl]amino}piperidin-1-yl]prop-2-en-1-one] | > 10000 | 
16 | C=C(C(=O)N1CC[C@@H]2CCN(c3ncnc4[nH]ccc34)[C@@H]2C1)C(F)(F)F [Example 41, 1-((3aS,7aS)-1-(7H-Pyrrolo[2,3-d]pyrimidin-4-yl)hexahydro-1H-pyrrolo[2,3-c]pyridin-6 (2H)-yl)-2-(trifluoromethyl)prop-2-en-1-one] | 1 | 92.5

The remaining lines, values ahead:

Row | IC50 [1] [nM] | IC50 [2] [nM] | SMILES
17 | 1.3 | 86.6 | C=CC(=O)N1CCC[C@@H](Nc2ncnc3[nH]cc(-c4cncc(F)c4)c23)C1 [Example 23, 1-[(3R)-3-{[5-(5-fluoropyridin-3-yl)-7H-pyrrolo[2,3-d]pyrimidin-4-yl]amino}piperidin-1-yl]prop-2-en-1-one]
18 | 1.2 | 98.1 | C=CC(=O)N1CCC[C@@H](Nc2ncnc3[nH]cc(-c4cncc(OC)c4)c23)C1 [Example 24, 1-[(3R)-3-{[5-(5-methoxypyridin-3-yl)-7H-pyrrolo[2,3-d]pyrimidin-4-yl]amino}piperidin-1-yl]prop-2-en-1-one]
19 | 2.9 | 149 | C=CC(=O)N1CCC[C@@H](Nc2ncnc3[nH]cc(-c4ccccc4O)c23)C1 [Example 25, 1-[(3R)-3-{[5-(2-hydroxyphenyl)-7H-pyrrolo[2,3-d]pyrimidin-4-yl]amino}piperidin-1-yl]prop-2-en-1-one]
20 | 1.6 | 153 | C=CC(=O)N1CCC[C@@H](Nc2ncnc3[nH]cc(-c4cccnc4)c23)C1 [Example 26, 1-[(3R)-3-{[5-(pyridin-3-yl)-7H-pyrrolo[2,3-d]pyrimidin-4-yl]amino}piperidin-1-yl]prop-2-en-1-one]
21 | 2.8 | 294 | C=CC(=O)N1CCC[C@@H](Nc2ncnc3[nH]cc(-c4ccc(C(=O)N(C)C)cc4)c23)C1 [Example 27, 4-(4-{[(3R)-1-acryloylpiperidin-3-yl]amino}-7H-pyrrolo[2,3-d]pyrimidin-5-yl)-N,N-dimethylbenzamide]
22 | 54.4 | 4820 | C=CC(=O)N1CCC[C@@H](Nc2ncnc3[nH]cc(-c4ccc5c(cnn5C)c4)c23)C1 [Example 34, 1-[(3R)-3-{[5-(1-methyl-1H-indazol-5-yl)-7H-pyrrolo[2,3-d]pyrimidin-4-yl]amino}piperidin-1-yl]prop-2-en-1-one]
23 | 83 |  | C=CC(=O)N1CCC[C@@H](Nc2ncnc3[nH]cc(-c4cnc(N5CCOCC5)nc4)c23)C1 [Example 35, 1-[(3R)-3-({5-[2-(morpholin-4-yl)pyrimidin-5-yl]-7H-pyrrolo[2,3-d]pyrimidin-4-yl}amino)piperidin-1-yl]prop-2-en-1-one]
24 | > 10000 |  | C=CC(=O)N1CCC[C@@H](Nc2ncnc3[nH]cc(C=C)c23)C1 [Example 40, 1-{(3R)-3-[(5-ethenyl-7H-pyrrolo[2,3-d]pyrimidin-4-yl)amino]piperidin-1-yl}prop-2-en-1-one]
25 | 0.9 | 94.4 | C=CC(=O)N1CCC[C@@H](Nc2ncnc3[nH]cc(F)c23)C1 [Example 42, 1-{(3R)-3-[(5-fluoro-7H-pyrrolo[2,3-d]pyrimidin-4-yl)amino]piperidin-1-yl}prop-2-en-1-one]
